Test results as given in patent US8741940B2, “Microbicidal composition” (Rohm and Haas Company, priority 2005, dated 2014).
“And” between values parts separate entries of the source, which are not always exact repeats. Equal values may be shown once. Read-outs that look alike come from different tables or passages of the source.

Tests used:
Assay type in all cases: cell-based
[1] = test system: Aspergillus niger (A. niger—ATCC 16404); test: Synergy test, microtiter plate high resolution MIC assay, mold in PDB medium; parameters: Qb (Second Component B) / Qa (First Component A): unit: ppm
Summary of the method: (§1)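 High-resolution microtiter MICs of BBIT or MBIT (component A) combined with a second microbicide (B), dilutions spanning 2–10,000 ppm active. E. coli ~5×10^6/mL in M9GY at 30 °C; C. albicans and A. niger 5×10^5/mL in PDB. Synergy index = Qa/QA + Qb/QB; >1 antagonism.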

[2] = test system: Escherichia coli (E. coli—ATCC #8739); test: Synergy test, microtiter plate high resolution MIC assay, bacterium in M9GY medium; parameters: Qa (First Component A) / Qb (Second Component B): unit: ppm; conditions: for MIC of the component acting alone (QA / QB): E. coli 8739, M9GY, 30° C.
Summary of the method: as §1

[3] = test system: Candida albicans (C. albicans—ATCC 10231); test: Synergy test, microtiter plate high resolution MIC assay, yeast in PDB medium; parameters: Qb (Second Component B) / Qa (First Component A): unit: ppm; conditions: for MIC of the component acting alone (QA / QB): C. albicans 10231, PDB, 25° C.
Summary of the method: as §1

[4] = A=MBIT, B=BBIT, A. niger 16404 - PDB, 4 days
[5] = A=MBIT, B=BBIT, E. coli 8739 - M9GY, 24 hours
[6] = A=MBIT, B=BBIT, C. albicans 10231 - PDB, 48 hours

Compound: CCCCn1sc2ccccc2c1=O [BBIT, N-(n-butyl)-1,2-benzisothiazolin-3-one]
- Qa (First Component A) [1]: 40
- SI (synergy index) [1]: 1.00
- MIC of the component acting alone (QA / QB) ([1]; A. niger 16404, PDB, 4 days, 25° C.): 15 ppm
- SI ([1]; A. niger 16404 - PDB, 3 days, BBIT + hexylene glycol): 1.00
- Qa (First Component A = BBIT) ([1]; A. niger 16404 - PDB, 3 days, BBIT alone (Qb 0) or in mixture with hexylene glycol): 15
- SI ([1]; A. niger 16404 - PDB, 3 days, BBIT with Methylparaben): 1.00
- SI ([1]; A. niger 16404 - PDB, 3 days, BBIT with Phospholipid PTC): 1.00
- SI ([1]; A. niger 16404 - PDB, 3 days, BBIT with Potassium sorbate): 1.00
- SI ([1]; A. niger 16404 - PDB, 4 days, BBIT + hexetidine): 1.00
- Qa (First Component A = BBIT) ([1]; A. niger 16404 - PDB, 4 days, BBIT alone (Qb 0) or in mixture with hexetidine): 20
- SI ([1]; A. niger 16404 - PDB, 4 days, BBIT with Pentylene glycol): 1.00
- SI ([1]; A. niger 16404 - PDB, 4 days, BBIT with Phospholipid EFA): 1.00
- SI ([1]; A. niger 16404 - PDB, 4 days, BBIT with Quaternium-15): 1.00
- SI ([1]; A. niger 16404 - PDB, 7 days, BBIT + DMDMH): 1.00
- SI ([1]; A. niger 16404 - PDB, 7 days, BBIT + DTBMA): 1.00
- SI ([1]; A. niger 16404 - PDB, 7 days, BBIT + EDTA): 1.00
- Qa (First Component A = BBIT) ([1]; A. niger 16404 - PDB, 7 days, BBIT alone (Qb 0) or in mixture with DMDMH): 80
- Qa (First Component A = BBIT) ([1]; A. niger 16404 - PDB, 7 days, BBIT alone (Qb 0) or in mixture with DTBMA): 40
- Qa (First Component A = BBIT) ([1]; A. niger 16404 - PDB, 7 days, BBIT alone (Qb 0) or in mixture with EDTA): 40
- SI ([1]; A. niger 16404 - PDB, 7 days, BBIT with Phenoxyethanol): 1.00
- SI ([1]; A. niger 16404 - PDB, 7 days, BBIT with Propylparaben): 1.00
- SI ([1]; A. niger 16404 - PDB, 7 days, BBIT with SDHA): 1.00
- SI ([1]; A. niger 16404 - PDB, 7 days, BBIT with Sodium benzoate): 1.00
- Qb (Second Component B) [1, 4]: 40
- SI (synergy index) [1, 4]: 1.00
- Qa (First Component A) [2]: 200
- SI (synergy index) [2]: 1.00
- Qb (Second Component B) [2, 5]: 100
- SI (synergy index) [2, 5]: 1.00
- MIC of the component acting alone (QA / QB) ([2]; 24 hours): 200 ppm and 100 ppm
- MIC of the component acting alone (QA / QB) ([2]; 48 hours): 100 ppm
- MIC of the component acting alone (QA / QB) ([2]; 72 hours): 100 ppm
- SI ([2]; E. coli 8739 - M9GY, 24 hours, BBIT + hexylene glycol): 1.00
- Qa (First Component A = BBIT) ([2]; E. coli 8739 - M9GY, 24 hours, BBIT alone (Qb 0) or in mixture with hexylene glycol): 100
- SI ([2]; E. coli 8739 - M9GY, 24 hours, BBIT with Pentylene glycol): 1.00
- SI ([2]; E. coli 8739 - M9GY, 24 hours, BBIT with Potassium sorbate): 1.00
- SI ([2]; E. coli 8739 - M9GY, 24 hours, BBIT with Propylparaben): 1.00
- SI ([2]; E. coli 8739 - M9GY, 24 hours, BBIT with SDHA): 1.00
- SI ([2]; E. coli 8739 - M9GY, 24 hours, BBIT with Sodium benzoate): 1.00
- SI ([2]; E. coli 8739 - M9GY, 48 hours, BBIT + DTBMA): 1.00
- SI ([2]; E. coli 8739 - M9GY, 48 hours, BBIT + hexamidine diisethionate): 1.00
- Qa (First Component A = BBIT) ([2]; E. coli 8739 - M9GY, 48 hours, BBIT alone (Qb 0) or in mixture with DTBMA): 100
- Qa (First Component A = BBIT) ([2]; E. coli 8739 - M9GY, 48 hours, BBIT alone (Qb 0) or in mixture with hexamidine diisethionate): 6
- SI ([2]; E. coli 8739 - M9GY, 48 hours, BBIT with Phospholipid EFA): 1.00
- SI ([2]; E. coli 8739 - M9GY, 72 hours, BBIT + DMDMH): 1.00
- SI ([2]; E. coli 8739 - M9GY, 72 hours, BBIT + EDTA): 1.00
- SI ([2]; E. coli 8739 - M9GY, 72 hours, BBIT + hexetidine): 1.00
- Qa (First Component A = BBIT) ([2]; E. coli 8739 - M9GY, 72 hours, BBIT alone (Qb 0) or in mixture with DMDMH): 100
- Qa (First Component A = BBIT) ([2]; E. coli 8739 - M9GY, 72 hours, BBIT alone (Qb 0) or in mixture with EDTA): 100
- Qa (First Component A = BBIT) ([2]; E. coli 8739 - M9GY, 72 hours, BBIT alone (Qb 0) or in mixture with hexetidine): 80
- SI ([2]; E. coli 8739 - M9GY, 72 hours, BBIT with Methylparaben): 1.00
- SI ([2]; E. coli 8739 - M9GY, 72 hours, BBIT with Phenoxyethanol): 1.00
- SI ([2]; E. coli 8739 - M9GY, 72 hours, BBIT with Phospholipid PTC): 1.00
- SI ([2]; E. coli 8739 - M9GY, 72 hours, BBIT with Quaternium-15): 1.00
- Qa (First Component A) [3]: 10
- SI (synergy index) [3]: 1.00
- Qb (Second Component B) [3, 6]: 6
- SI (synergy index) [3, 6]: 1.00
- MIC of the component acting alone (QA / QB) ([3]; 24 hours): 7.5 ppm and 6 ppm and 8 ppm
- MIC of the component acting alone (QA / QB) ([3]; 48 hours): 10 ppm and 7.5 ppm and 8 ppm
- SI ([3]; C. albicans 10231 - PDB, 24 hours, BBIT + DMDMH): 1.00
- SI ([3]; C. albicans 10231 - PDB, 24 hours, BBIT + DTBMA): 1.00
- SI ([3]; C. albicans 10231 - PDB, 24 hours, BBIT + EDTA): 1.00
- SI ([3]; C. albicans 10231 - PDB, 24 hours, BBIT + hexamidine diisethionate): 1.00
- SI ([3]; C. albicans 10231 - PDB, 24 hours, BBIT + hexylene glycol): 1.00
- Qa (First Component A = BBIT) ([3]; C. albicans 10231 - PDB, 24 hours, BBIT alone (Qb 0) or in mixture with DMDMH): 7.5
- Qa (First Component A = BBIT) ([3]; C. albicans 10231 - PDB, 24 hours, BBIT alone (Qb 0) or in mixture with DTBMA): 15
- Qa (First Component A = BBIT) ([3]; C. albicans 10231 - PDB, 24 hours, BBIT alone (Qb 0) or in mixture with EDTA): 7.5
- Qa (First Component A = BBIT) ([3]; C. albicans 10231 - PDB, 24 hours, BBIT alone (Qb 0) or in mixture with hexamidine diisethionate): 10
- Qa (First Component A = BBIT) ([3]; C. albicans 10231 - PDB, 24 hours, BBIT alone (Qb 0) or in mixture with hexylene glycol): 10
- SI ([3]; C. albicans 10231 - PDB, 24 hours, BBIT with Methylparaben): 1.00
- SI ([3]; C. albicans 10231 - PDB, 24 hours, BBIT with Pentylene glycol): 1.00
- SI ([3]; C. albicans 10231 - PDB, 24 hours, BBIT with Phenoxyethanol): 1.00
- SI ([3]; C. albicans 10231 - PDB, 24 hours, BBIT with Phospholipid EFA): 1.00
- SI ([3]; C. albicans 10231 - PDB, 24 hours, BBIT with Phospholipid PTC): 1.00
- SI ([3]; C. albicans 10231 - PDB, 24 hours, BBIT with Potassium sorbate): 1.00
- SI ([3]; C. albicans 10231 - PDB, 24 hours, BBIT with Propylparaben): 1.00
- SI ([3]; C. albicans 10231 - PDB, 24 hours, BBIT with Quaternium-15): 1.00
- SI ([3]; C. albicans 10231 - PDB, 24 hours, BBIT with SDHA): 1.00
- SI ([3]; C. albicans 10231 - PDB, 48 hours, BBIT with Sodium benzoate): 1.00
- SI ([3]; C. albicans 10231 - PDB, 72 hours, BBIT + hexetidine): 1.00
- Qa (First Component A = BBIT) ([3]; C. albicans 10231 - PDB, 72 hours, BBIT alone (Qb 0) or in mixture with hexetidine): 15
